Assay results as given in US20240343704A1, “HALO-SUBSTITUTED AMINO PYRIDINE COMPOUNDS AS INHIBITORS OF THE HAEMATOPOIETIC PROGENITOR KINASE 1 (HPK1)” (priority 2021, published 2024).

target: T1, Recombinant (1-346) HPK1 (h) (Homo sapiens, UniProt Q92918); assay: HPK1 Human STE Kinase Enzymatic Radiometric Assay; type: biochemical; details: read-out: HPK1 IC50 nM Range*
T1 construct: Recombinant (1-346) HPK1 (h) is incubated with 8 mM MOPS pH 7.0
T1 sequence (Q92918 1-346): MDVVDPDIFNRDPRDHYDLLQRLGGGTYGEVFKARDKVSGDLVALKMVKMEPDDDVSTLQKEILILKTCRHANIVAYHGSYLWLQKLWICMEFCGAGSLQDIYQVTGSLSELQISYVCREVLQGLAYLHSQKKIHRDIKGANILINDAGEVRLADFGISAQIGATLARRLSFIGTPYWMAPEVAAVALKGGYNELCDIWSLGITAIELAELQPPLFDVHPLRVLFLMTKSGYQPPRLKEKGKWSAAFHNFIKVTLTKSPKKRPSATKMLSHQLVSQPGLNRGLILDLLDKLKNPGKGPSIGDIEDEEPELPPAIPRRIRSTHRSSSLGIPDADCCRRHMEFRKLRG
Method: A stock solution of 10 mM of test compound is prepared in DMSO. The compound plate was prepared by 3-fold and 9-point serial dilutions. […] The reaction is initiated by The addition of the Mg/ATP mix. After incubation for 40 minutes at RT, the reaction is stopped by the addition of phosphoric acid to a concentration of 0.5%.

| Structure (SMILES) | IC50 [nM] |
| --- | --- |
| C[C@@H]1CN(c2ccc(-c3cc(-c4ccc5c(c4)CCNC5=O)c(N)nc3F)cc2CN(C)C)CCO1 [I-575, (R)-6-(2-amino-5-(3-((dimethylamino)methyl)-4-(2-methylmorpholino)phenyl)-6-fluoropyridin-3-yl)-3,4-dihydroisoquinolin-1(2H)-one] | 11 to 100 |
| C[C@@H]1CN(c2ccc(-c3cc(-c4cc5c(cc4F)C(=O)NCC5)c(N)nc3F)cc2CN(C)C)CCO1 [I-576, (R)-6-(2-amino-5-(3-((dimethylamino)methyl)-4-(2-methylmorpholino)phenyl)-6-fluoropyridin-3-yl)-7-fluoro-3,4-dihydroisoquinolin-1(2H)-one] | 0.1 to 10 |
| Cc1c[nH]c(=O)c2cc(F)c(-c3cc(-c4ccc(N5CCN(C(C)C)CC5)cc4)c(F)nc3N)cc12 [I-577, 6-(2-amino-6-fluoro-5-(4-(4-isopropylpiperazin-1-yl)phenyl)pyridin-3-yl)-7-fluoro-4-methylisoquinolin-1(2H)-one] | 0.1 to 10 |
| Nc1nc(F)c(-c2ccc(N3CCOCC3)c(CN3CCC3)n2)cc1-c1ccc2c(c1)CCNC2=O [I-578, 6-(6′-amino-6-(azetidin-1-ylmethyl)-2-fluoro-5-morpholino-[2,3′-bipyridin]-5′-yl)-3,4-dihydroisoquinolin-1(2H)-one] | 0.1 to 10 |
| Nc1nc(F)c(-c2ccc(N3CCOCC3)c(CN3CCC3)n2)cc1-c1cc2c(cc1F)C(=O)NCC2 [I-579] | 0.1 to 10 |
| CCN(C)Cc1nc(-c2cc(-c3cc4c(cc3F)C(=O)NCC4)c(N)nc2F)ccc1N1CCOCC1 [I-581, 6-(6′-amino-6-((ethyl(methyl)amino)methyl)-2′-fluoro-5-morpholino-[2,3′-bipyridin]-5′-yl)-7-fluoro-3,4-dihydroisoquinolin-1(2H)-one] | 0.1 to 10 |
| COCCN(C)Cc1nc(-c2cc(-c3ccc4c(c3)CCNC4=O)c(N)nc2F)ccc1N1CCOCC1 [I-582, 6-(6′-amino-2′-fluoro-6-(((2-methoxyethyl)(methyl)amino)methyl)-5-morpholino-[2,3′-bipyridin]-5′-yl)-3,4-dihydroisoquinolin-1(2H)-one] | 0.1 to 10 |
| COCCN(C)Cc1nc(-c2cc(-c3cc4c(cc3F)C(=O)NCC4)c(N)nc2F)ccc1N1CCOCC1 [I-583, 6-(6′-amino-2′-fluoro-6-(((2-methoxyethyl)(methyl)amino)methyl)-5-morpholino-[2,3′-bipyridin]-5′-yl)-7-fluoro-3,4-dihydroisoquinolin-1(2H)-one] | 0.1 to 10 |
| CO[C@H]1CCN(Cc2nc(-c3cc(-c4ccc5c(c4)CCNC5=O)c(N)nc3F)ccc2N2CCOCC2)C1 [I-584, (S)-6-(6′-amino-2-fluoro-6-((3-methoxypyrrolidin-1-yl)methyl)-5-morpholino-[2,3′-bipyridin]-5′-yl)-3,4-dihydroisoquinolin-1(2H)-one] | 0.1 to 10 |
| CO[C@H]1CCN(Cc2nc(-c3cc(-c4cc5c(cc4F)C(=O)NCC5)c(N)nc3F)ccc2N2CCOCC2)C1 [I-585, (S)-6-(6′-amino-2-fluoro-6-((3-methoxypyrrolidin-1-yl)methyl)-5-morpholino-[2,3′-bipyridin]-5′-yl)-7-fluoro-3,4-dihydroisoquinolin-1(2H)-one] | 0.1 to 10 |
| Cc1c[nH]c(=O)c2ccc(-c3cc(-c4ccc(C5CCOCC5)cc4)c(F)nc3N)cc12 [I-586, 6-(2-amino-6-fluoro-5-(4-(tetrahydro-2H-pyran-4-yl)phenyl)pyridin-3-yl)-4-methylisoquinolin-1(2H)-one] | 11 to 100 |
| Cc1cc2cc(-c3cc(-c4ccc(N5CCN(C(C)C)CC5)cc4)c(F)nc3N)c(F)cc2c(=O)[nH]1 [I-587, 6-(2-amino-6-fluoro-5-(4-(4-isopropylpiperazin-1-yl)phenyl)pyridin-3-yl)-7-fluoro-3-methylisoquinolin-1(2H)-one] | 11 to 100 |
| Cc1c[nH]c(=O)c2ccc(-c3cc(-c4ccc(N5CCOCC5)c(CN(C)C)n4)c(F)nc3N)cc12 [I-588, 6-(6′-amino-6-((dimethylamino)methyl)-2′-fluoro-5-morpholino-[2,3′-bipyridin]-5′-yl)-4-methylisoquinolin-1(2H)-one] | 0.1 to 10 |
| CN(C)Cc1nc(-c2cc(-c3ccc4c(=O)[nH]cc(F)c4c3)c(N)nc2F)ccc1N1CCOCC1 [I-589, 6-(6′-amino-6-((dimethylamino)methyl)-2′-fluoro-5-morpholino-[2,3′-bipyridin]-5′-yl)-4-fluoroisoquinolin-1(2H)-one] | 0.1 to 10 |
| CC(C)(C)OC(=O)N1CCN(c2ccc(-c3cc(-c4ccc5c(c4)CCNC5=O)c(N)nc3F)nc2)CC1 [I-590, tert-butyl4-(6′-amino-2′-fluoro-5′-(1-oxo-1,2,3,4-tetrahydroisoquinolin-6-yl)-[2,3′-bipyridin]-5-yl) piperazine-1-carboxylate] | 0.1 to 10 |
| CC(=O)N1CCN(c2ccc(-c3cc(-c4cc5c(cc4F)C(=O)NCC5)c(N)nc3F)nc2)CC1 [I-592, 6-(5-(4-acetylpiperazin-1-yl)-6′-amino-2′-fluoro-[2,3′-bipyridin]-5′-yl)-7-fluoro-3,4-dihydroisoquinolin-1(2H)-one] | 0.1 to 10 |
| Nc1nc(F)c(-c2ccc(N3CCN(CCCC(F)F)CC3)cn2)cc1-c1ccc2c(c1)CCNC2=O [I-593, 6-(6′-amino-5-(4-(4,4-difluorobutyl)piperazin-1-yl)-2′-fluoro-[2,3′-bipyridin]-5′-yl)-3,4-dihydroisoquinolin-1(2H)-one] | 0.1 to 10 |
| CN(C)Cc1cccc(-c2cc(-c3ccc4c(c3)CCNC4=O)c(N)nc2F)c1 [I-594, 6-(2-amino-5-(3-((dimethylamino)methyl)phenyl)-6-fluoropyridin-3-yl)-3,4-dihydroisoquinolin-1(2H)-one] | 11 to 100 |
| Cc1nc2cc(-c3cc(-c4ccc(N5C[C@@H](C)O[C@@H](C)C5)c(CN(C)C)c4)c(F)nc3N)ccc2c(=O)[nH]1 [I-595, 7-(2-amino-5-(3-((dimethylamino)methyl)-4-((2R,6S)-2,6-dimethylmorpholino)phenyl)-6-fluoropyridin-3-yl)-2-methylquinazolin-4(3H)-one] | 11 to 100 |
| C[C@@H]1CN(c2ccc(-c3cc(-c4cc(F)c5c(c4)CCNC5=O)c(N)nc3F)cc2CN(C)C)C[C@H](C)O1 [I-596, 6-(2-amino-5-(3-((dimethylamino)methyl)-4-((2R,6S)-2,6-dimethylmorpholino)phenyl)-6-fluoropyridin-3-yl)-8-fluoro-3,4-dihydroisoquinolin-1(2H)-one] | 11 to 100 |
| C[C@@H]1CN(c2ccc(-c3cc(-c4cc5c(cc4F)C(=O)NCC5)c(N)nc3F)cc2CN(C)C)C[C@H](C)O1 [I-597, 6-(2-amino-5-(3-((dimethylamino)methyl)-4-((2R,6S)-2,6-dimethylmorpholino)phenyl)-6-fluoropyridin-3-yl)-7-fluoro-3,4-dihydroisoquinolin-1(2H)-one] | 11 to 100 |
| C[C@H]1CN(c2ccc(-c3cc(-c4ccc5c(c4)CCNC5=O)c(N)nc3F)cc2CN2CCC2)CCO1 [I-598, (S)-6-(2-amino-5-(3-(azetidin-1-ylmethyl)-4-(2-methylmorpholino)phenyl)-6-fluoropyridin-3-yl)-3,4-dihydroisoquinolin-1(2H)-one] | 11 to 100 |
| C[C@H]1CN(c2ccc(-c3cc(-c4cc5c(cc4F)C(=O)NCC5)c(N)nc3F)cc2CN2CCC2)CCO1 [I-599, (S)-6-(2-amino-5-(3-(azetidin-1-ylmethyl)-4-(2-methylmorpholino)phenyl)-6-fluoropyridin-3-yl)-7-fluoro-3,4-dihydroisoquinolin-1(2H)-one] | 11 to 100 |
| CN(C)Cc1nc(-c2cc(-c3ccc4c(c3)CCNC4=O)c(N)nc2F)ccc1C1CCOCC1 [I-600, 6-(6′-amino-6-((dimethylamino)methyl)-2′-fluoro-5-(tetrahydro-2H-pyran-4-yl)-[2,3′-bipyridin]-5′-yl)-3,4-dihydroisoquinolin-1(2H)-one] | 0.1 to 10 |
| CN(C)Cc1nc(-c2cc(-c3cc4c(cc3F)C(=O)NCC4)c(N)nc2F)ccc1C1CCOCC1 [I-601, 6-(6′-amino-6-((dimethylamino)methyl)-2′-fluoro-5-(tetrahydro-2H-pyran-4-yl)-[2,3′-bipyridin]-5′-yl)-7-fluoro-3,4-dihydroisoquinolin-1(2H)-one] | 0.1 to 10 |
| Nc1nc(F)c(-c2ccc(C3CCOCC3)c(CN3CCC3)n2)cc1-c1cc2c(cc1F)C(=O)NCC2 [I-602, 6-(6′-amino-6-(azetidin-1-ylmethyl)-2′-fluoro-5-(tetrahydro-2H-pyran-4-yl)-[2,3′-bipyridin]-5′-yl)-7-fluoro-3,4-dihydroisoquinolin-1(2H)-one] | 0.1 to 10 |
| CCN(C)Cc1nc(-c2cc(-c3ccc4c(c3)CCNC4=O)c(N)nc2F)ccc1C1CCOCC1 [I-603, 6-(6′-amino-6-((ethyl(methyl)amino)methyl)-2′-fluoro-5-(tetrahydro-2H-pyran-4-yl)-[2,3′-bipyridin]-5′-yl)-3,4-dihydroisoquinolin-1(2H)-one] | 0.1 to 10 |
| CCN(C)Cc1nc(-c2cc(-c3cc4c(cc3F)C(=O)NCC4)c(N)nc2F)ccc1C1CCOCC1 [I-604, 6-(6′-amino-6-((ethyl(methyl)amino)methyl)-2′-fluoro-5-(tetrahydro-2H-pyran-4-yl)-[2,3′-bipyridin]-5′-yl)-7-fluoro-3,4-dihydroisoquinolin-1(2H)-one] | 0.1 to 10 |
| Nc1nc(F)c(-c2ccc(C3CCOCC3)c(CN3CCC3)n2)cc1-c1ccc2c(c1)CCNC2=O [I-605, 6-(6′-amino-6-(azetidin-1-ylmethyl)-2′-fluoro-5-(tetrahydro-2H-pyran-4-yl)-[2,3′-bipyridin]-5′-yl)-3,4-dihydroisoquinolin-1(2H)-one] | 0.1 to 10 |
